Legend:
[1] = system: NCI-H358 (K-Ras G12C); experiment: CellTiter-Glo cell viability assay, 5-day treatment; assay type: cell-based; settings: Homo sapiens, NCI-H358, H358, K-Ras G12C; read-out: Additional H358 Cell Viability assay data (K-Ras G12C, IC50)
Summary of the method: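 Compounds were dispensed directly onto seeded cells and incubated for 5 days, then plates were equilibrated to room temperature for about 30 minutes before luminescence reading. Signals were expressed as percent of the mean DMSO control and fitted with a four-parameter logistic curve.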

[2] = target: KRAS G12C (Homo sapiens, UniProt P01116+P62937, G12C); experiment: Disruption of BRAF RBD interaction with Ras (FRET / MOA assay, with Cyclophilin A); assay type: biochemical; settings: KRAS G12C; read-out: KRAS G12C FRET data IC50
Sequence of KRAS G12C (P01116 1-169 isoform P01116-2 G12C): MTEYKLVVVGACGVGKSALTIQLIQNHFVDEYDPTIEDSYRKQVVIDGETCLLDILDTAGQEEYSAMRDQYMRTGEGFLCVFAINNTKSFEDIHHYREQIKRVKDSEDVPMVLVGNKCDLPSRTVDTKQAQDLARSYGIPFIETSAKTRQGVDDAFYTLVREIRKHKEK
Sequence of KRAS G12C (P62937 whole entry): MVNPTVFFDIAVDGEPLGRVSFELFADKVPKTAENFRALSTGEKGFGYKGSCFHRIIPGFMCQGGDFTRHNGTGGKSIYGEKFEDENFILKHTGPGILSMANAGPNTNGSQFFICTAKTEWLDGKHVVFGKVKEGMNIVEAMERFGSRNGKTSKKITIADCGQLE
Summary of the method: (§1)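 Compound-driven ternary complex formation between nucleotide-loaded K-Ras and Cyclophilin A was measured as loss of BRAF RBD binding. Compounds (10-point 3-fold series, top 30 μM final) were incubated 3 h at 25 °C, then anti-His Eu-W1024 (10 nM) and anti-GST allophycocyanin (50 nM) added for 1.5 h. IC50 was taken from the TR-FRET ratio decrease versus DMSO.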

[3] = target: KRAS G12D (Homo sapiens, UniProt P01116+P62937, G12D); experiment: as above; assay type: biochemical; settings: read-out: KRAS G12D FRET data, IC50
Sequence of KRAS G12D (P01116 1-169 isoform P01116-2 G12D limits assumed): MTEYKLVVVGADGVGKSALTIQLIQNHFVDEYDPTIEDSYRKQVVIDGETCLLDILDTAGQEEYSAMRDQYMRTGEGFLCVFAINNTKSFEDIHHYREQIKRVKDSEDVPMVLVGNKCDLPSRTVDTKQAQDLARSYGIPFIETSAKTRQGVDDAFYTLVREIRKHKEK
Sequence of KRAS G12D (P62937 whole entry): as the sequence (P62937 whole entry) above
Summary of the method: as §1

[4] = target: KRAS G12S (Homo sapiens, UniProt P01116+P62937, G12S); experiment: as above; assay type: biochemical; settings: read-out: KRAS G12S FRET data, IC50
Sequence of KRAS G12S (P01116 1-169 isoform P01116-2 G12S limits assumed): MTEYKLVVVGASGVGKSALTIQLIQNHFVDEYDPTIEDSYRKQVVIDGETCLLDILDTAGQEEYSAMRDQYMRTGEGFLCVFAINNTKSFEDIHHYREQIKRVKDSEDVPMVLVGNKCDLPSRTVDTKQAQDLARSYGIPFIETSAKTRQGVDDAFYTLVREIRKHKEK
Sequence of KRAS G12S (P62937 whole entry): as the sequence (P62937 whole entry) above
Summary of the method: as §1

[5] = target: KRAS G12V (Homo sapiens, UniProt P01116+P62937, G12V); experiment: as above; assay type: biochemical; settings: KRAS G12V; read-out: KRAS G12V FRET data IC50
Sequence of KRAS G12V (P01116 1-169 isoform P01116-2 G12V limits assumed): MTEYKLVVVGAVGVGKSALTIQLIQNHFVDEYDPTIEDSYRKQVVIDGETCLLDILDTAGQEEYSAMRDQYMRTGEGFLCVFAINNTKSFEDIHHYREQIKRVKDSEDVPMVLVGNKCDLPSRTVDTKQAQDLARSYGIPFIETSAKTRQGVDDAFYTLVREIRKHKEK
Sequence of KRAS G12V (P62937 whole entry): as the sequence (P62937 whole entry) above
Summary of the method: as §1

[6] = target: KRAS G13C (Homo sapiens, UniProt P01116+P62937, G13C); experiment: as above; assay type: biochemical; settings: KRAS G13C; read-out: KRAS G13C FRET data IC50
Sequence of KRAS G13C (P01116 1-169 isoform P01116-2 G13C): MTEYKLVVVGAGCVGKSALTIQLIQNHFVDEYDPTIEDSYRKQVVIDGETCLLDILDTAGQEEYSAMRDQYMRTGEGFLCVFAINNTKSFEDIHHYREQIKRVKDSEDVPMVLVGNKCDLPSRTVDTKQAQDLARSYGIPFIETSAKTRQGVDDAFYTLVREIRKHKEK
Sequence of KRAS G13C (P62937 whole entry): as the sequence (P62937 whole entry) above
Summary of the method: as §1

[7] = target: KRAS G13D (Homo sapiens, UniProt P01116+P62937, G13D); experiment: as above; assay type: biochemical; settings: KRAS G13D; read-out: KRAS G13D FRET data IC50
Sequence of KRAS G13D (P01116 1-169 isoform P01116-2 G13D limits assumed): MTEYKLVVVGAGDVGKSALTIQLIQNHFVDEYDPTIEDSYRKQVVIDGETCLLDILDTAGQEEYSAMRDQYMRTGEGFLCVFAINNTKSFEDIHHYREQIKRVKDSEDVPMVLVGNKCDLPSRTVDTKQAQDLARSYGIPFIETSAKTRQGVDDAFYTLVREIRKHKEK
Sequence of KRAS G13D (P62937 whole entry): as the sequence (P62937 whole entry) above
Summary of the method: as §1

[8] = target: KRAS WT (Homo sapiens, UniProt P01116+P62937); experiment: as above; assay type: biochemical; settings: KRAS WT; read-out: KRAS WT FRET data IC50
Sequence of KRAS WT (P01116 1-169 isoform P01116-2 limits assumed): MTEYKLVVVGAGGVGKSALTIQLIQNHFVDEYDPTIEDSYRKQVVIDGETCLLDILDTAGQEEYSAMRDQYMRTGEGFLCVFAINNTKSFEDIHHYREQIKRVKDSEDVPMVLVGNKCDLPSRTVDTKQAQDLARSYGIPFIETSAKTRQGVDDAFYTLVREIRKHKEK
Sequence of KRAS WT (P62937 whole entry): as the sequence (P62937 whole entry) above
Summary of the method: as §1

[9] = target: NRAS G12C (Homo sapiens, UniProt P01111+P62937, G12C); experiment: as above; assay type: biochemical; settings: NRAS G12C; read-out: NRAS G12C FRET data IC50
Sequence of NRAS G12C (P01111 whole entry G12C): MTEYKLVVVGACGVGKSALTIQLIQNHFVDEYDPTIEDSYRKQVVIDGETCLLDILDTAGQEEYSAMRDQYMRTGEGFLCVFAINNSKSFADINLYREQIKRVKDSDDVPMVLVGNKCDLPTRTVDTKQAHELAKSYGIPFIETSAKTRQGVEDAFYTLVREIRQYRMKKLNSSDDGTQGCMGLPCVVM
Sequence of NRAS G12C (P62937 whole entry): as the sequence (P62937 whole entry) above

IC50 [1] [nM] | IC50 [2] [nM] | IC50 [3] [µM] | IC50 [4] [nM] | IC50 [5] [nM] | IC50 [6] [nM] | IC50 [7] [nM] | IC50 [8] [nM] | IC50 [9] [nM] | Structure (SMILES)
10 to 100 | 100 to 1000 | 0.1 to 1 | 100 to 1000 | 100 to 1000 | 10 to 100 | 100 to 1000 | 100 to 1000 | 100 to 1000 | C=CC(=O)N1CCOC2(CCN(C(=O)N(C)[C@H](C(=O)N[C@H]3Cc4cccc(c4)-c4ccc5c(c4)c(c(-c4cccnc4[C@H](C)OC)n5CC(F)(F)F)CC(C)(C)COC(=O)C4CCCN(N4)C3=O)C(C)C)CC2)C1 (stereo partly drawn) [Example A608]
< 10 | 10 to 100 | 1 to 10 | 1000 to 10000 | 1000 to 10000 | 10 to 100 | 1000 to 10000 | 100 to 1000 | 10 to 100 | C=CC(=O)N1CCO[C@H]2CN(C(=O)N(C)[C@H](C(=O)N[C@H]3Cc4cccc(n4)-c4ccc5c(c4)c(c(-c4cccnc4[C@H](C)OC)n5CC(F)(F)F)CC(C)(C)COC(=O)C4CCCN(N4)C3=O)C(C)C)C[C@H]21 (stereo partly drawn) [Example A595]
10 to 100 | 100 to 1000 | > 10 | 1000 to 10000 | 1000 to 10000 | 100 to 1000 | 1000 to 10000 | 1000 to 10000 | 100 to 1000 | C=CC(=O)N1CC(OC[C@H](C(=O)N[C@H]2Cc3cc(F)cc(c3)-c3ccc4c(c3)c(c(-c3cccnc3[C@H](C)OC)n4CC)CC(C)(C)COC(=O)[C@@H]3CCCN(N3)C2=O)C(C)C)C1 (atropisomer, axis not shown) [Example A725]
< 10 | < 10 | 0.1 to 1 | 10 to 100 | 10 to 100 | 10 to 100 | 100 to 1000 | 10 to 100 | < 10 | C=CC(=O)N1CCO[C@H]2CCN(C(=O)N(C)[C@H](C(=O)N[C@H]3Cc4nc(cs4)-c4ccc5c(c4)c(c(-c4cccnc4[C@H](C)OC)n5CC)CC(C)(C)COC(=O)C4CCCN(N4)C3=O)C(C)C)C[C@@H]21 (stereo partly drawn) [Example A609]
< 10 | 10 to 100 | 1 to 10 | 100 to 1000 | 1000 to 10000 | 100 to 1000 | 100 to 1000 | 100 to 1000 | 10 to 100 | C=CC(=O)N1CC[C@@]2(CCN2C(=O)N(C)[C@H](C(=O)N[C@H]2Cc3nc(cs3)-c3ccc4c(c3)c(c(-c3cccnc3[C@H](C)OC)n4CC)CC(C)(C)COC(=O)C3CCCN(N3)C2=O)N(C)C)C1 (single isomer, unassigned) [Example A661]

More lines, now with the values behind:

Structure (SMILES) | IC50 [1] [nM] | IC50 [2] [nM] | IC50 [3] [µM] | IC50 [4] [nM] | IC50 [5] [nM] | IC50 [6] [nM] | IC50 [7] [nM] | IC50 [8] [nM] | IC50 [9] [nM]
CCn1c(-c2cccnc2[C@H](C)OC)c2c3cc(ccc31)N1CCO[C@@](C)(CC(NC(=O)[C@H](C(C)C)N(C)C(=O)C3(F)CCN(C(=O)C#CC(C)(C)N(C)C)CC3)C(=O)N3CCC[C@H](N3)C(=O)OCC(C)(C)C2)C1 (stereo partly drawn) [Example A550] | < 10 | < 10 | 1 to 10 | 1000 to 10000 | 100 to 1000 | 100 to 1000 | 1000 to 10000 | 100 to 1000 | < 10
C=CC(=O)N1CC[C@H](C(=O)N(C)[C@H](C(=O)N[C@H]2Cc3cc(O)cc(c3)-c3ccc4c(c3)c(c(-c3ccnc5c3[C@@H](OC)CC5)n4CC)CC(C)(C)COC(=O)[C@@H]3CCCN(N3)C2=O)C(C)C)C1 [Example A275] | < 10 | 10 to 100 | 0.1 to 1 | 10 to 100 | 10 to 100 | 10 to 100 | 100 to 1000 | 100 to 1000 | 10 to 100
CCn1c(-c2cccnc2[C@H](C)OC)c2c3cc(ccc31)-c1cccc(c1)C[C@H](NC(=O)[C@@H](COC1CN(C(=O)C#C[C@@H]3COCCN3C)C1)C(C)C)C(=O)N1CCC[C@H](N1)C(=O)OCC(C)(C)C2 (atropisomer, axis not shown) [Example A648] | 10 to 100 | 100 to 1000 | > 10 | > 10000 | > 10000 | 1000 to 10000 | > 10000 | 1000 to 10000 | 100 to 1000
C=CS(=O)(=O)N1CC[C@H](C(=O)N(C)[C@H](C(=O)N[C@H]2Cc3nc(cs3)-c3ccc4c(c3)c(c(-c3cncnc3)n4CC)CC(C)(C)COC(=O)[C@@H]3CCCN(N3)C2=O)C(C)C)C1 [Example A170] | 100 to 1000 | 1000 to 10000 | > 10 | > 10000 | > 10000 | 1000 to 10000 | > 10000 | > 10000 | 1000 to 10000
C=CC(=O)N1CCOC2(CCN(C(=O)N(C)[C@H](C(=O)N[C@H]3CN4CCC=C(C4)c4ccc5c(c4)c(c(-c4cccnc4[C@H](C)OC)n5CC)CC(C)(C)COC(=O)[C@@H]4CCCN(N4)C3=O)C(C)C)CC2)C1 [Example A563] | 100 to 1000 | 100 to 1000 | > 10 | 1000 to 10000 | 1000 to 10000 | 100 to 1000 | 1000 to 10000 | 1000 to 10000 | 100 to 1000
CCn1c(-c2cccnc2[C@H](C)OC)c2c3cc(ccc31)-c1cccc(c1)C[C@H](NC(=O)[C@@H](CN1CC[C@]3(CCN(C(=O)C#C[C@H]4COCCN4C)C3)C1=O)C(C)C)C(=O)N1CCCC(N1)C(=O)OCC(C)(C)C2 (stereo partly drawn) [Example A592] | < 10 | 10 to 100 | > 10 | 1000 to 10000 | 1000 to 10000 | 1000 to 10000 | > 10000 | > 10000 | 10 to 100
CCn1c(-c2cccnc2[C@H](C)OC)c2c3cc(ccc31)-c1csc(n1)C[C@H](NC(=O)[C@H](C(C)C)N(C)C(=O)N1CC(N(C)C(=O)C#CC(C)(C)N3CCC3)C1)C(=O)N1CCC[C@H](N1)C(=O)OCC(C)(C)C2 [Example A379] | < 10 | < 10 | 1 to 10 | 100 to 1000 | 100 to 1000 | 10 to 100 | 100 to 1000 | 100 to 1000 | 10 to 100
C=CC(=O)N1CC[C@H](C(=O)N(C)[C@H](C(=O)N[C@H]2Cc3cc(O)cc(c3)-c3ccc4c(c3)c(c(-c3cccnc3)n4C3CC3)CC(C)(C)COC(=O)[C@@H]3CCCN(N3)C2=O)C(C)C)C1 [Example A160] | 100 to 1000 | 100 to 1000 | > 10 | > 10000 | > 10000 | > 10000 | > 10000 | > 10000 | 1000 to 10000
C=CC(=O)N1CCO[C@H]2CN(C(=O)N(C)[C@H](C(=O)N[C@H]3CN4CCC=C(C4)c4ccc5c(c4)c(c(-c4cccnc4[C@H](C)OC)n5CC)CC(C)(C)COC(=O)[C@@H]4CCCN(N4)C3=O)C(C)C)C[C@H]21 [Example A552] | < 10 | 10 to 100 | 1 to 10 | 1000 to 10000 | 1000 to 10000 | 10 to 100 | 1000 to 10000 | 100 to 1000 | 10 to 100
C=CC(=O)N1CC[C@H](C(=O)N(C)[C@H](C(=O)N[C@H]2Cc3nsc(n3)-c3ccc4c(c3)c(c(-c3cccnc3[C@H](C)OC)n4CC)CC(C)(C)COC(=O)[C@@H]3CCCN(N3)C2=O)C(C)C)C1 (atropisomer, axis not shown) [Example A694] | 10 to 100 | 100 to 1000 | 1 to 10 | 1000 to 10000 | 1000 to 10000 | 100 to 1000 | 1000 to 10000 | 1000 to 10000 | 100 to 1000

— patent US20230233569A1 (Revolution Medicines, Inc., priority 2020, published 2023)
